Results taken from patent US20260042764A1, “COMPOSITIONS AND METHODS FOR INHIBITION OF KRAS” (TheRas, Inc., priority 2022, published 2026).
Like-named read-outs stand apart in the source and are kept apart here.

Columns and labels:
HCT116 cells (KRAS G13D) = assay: Cell-based pERK HTRF assay in HCT116 cells (Biological Example 5)
Description: (§1) Biological Example 5: Cell-based PERK HTRF assay in AsPC-1, SW1900, HPAC, Capan-2, RKN, H358, HCT116, KP-2, H1573, A549, MKN1, and HT1080 cells
(§2) The inhibition of ERK phosphorylation, as measured using the HTRF Advanced Phospho-ERK 1/2 (Thr202/Tyr204) Detection Assay kit (Perkin Elmer), was used to determine the effectiveness of test compounds in disrupting KRAS-driven protein/effector signaling in cells.
(§3) On day 1, cells were seeded into 96-well plates at 2.5×10^4 cells/well in 100 μL of complete growth media supplemented with 10% fetal bovine serum (FBS) and incubated at 37° C., in the presence of 5% CO2.
(§4) On day 2, cells were treated with compounds diluted in DMSO at 0.25% final DMSO concentration. Compounds were dosed in a 9-point concentration curve with three-fold dilution between concentrations. Cells were incubated in the presence of compound for two hours at 37° C. Following this treatment period, cells were harvested by aspirating the media, adding 40 μL of kit-supplied 1x lysis buffer per well, and shaking for 30 minutes at 250 rpm at room temperature.
(§5) Following cell lysis, samples were homogenized by pipetting up and down twenty times and 16 μL of cell lysate per well was transferred from the 96-well cell culture plate to two wells of a 384-well detection plate. A complete detection buffer was prepared by diluting D2 and Eu Cryptate antibodies 1:20 in kit-provided detection solution, 4 μL of complete detection buffer was then added to each well with lysate. Plates were incubated with gentle rocking for 24 hours at 4° C.
(§6) Following this incubation period, plates were centrifuged at 500×g for one minute and analyzed on a CLARIOstar plate reader. Data was imported into Microsoft Excel and the signal from the 665 nm channel was divided by the signal from the 620 nm channel. % pERK was calculated as: […]
(§7) Data was imported to the Prism software package (Graphpad) and EC50 values were calculated using the log (inhibitor) vs, response—variable slopc (Four parameters) model.

H1573 cells (KRAS G12A) [1] = assay: Cell-based pERK HTRF assay in H1573 cells (Biological Example 5); settings: Homo sapiens, NCI-H1573
Description: as §1, §2, §3, §4, §5, §6, §7

H1573 cells (KRAS G12A) [2] = assay: 3D Cell viability assay in H1573 cells (Biological Example 6); format: cell-based; settings: Homo sapiens, NCI-H1573; H1573 (KRAS G12A) spheroids, 72 hours
Description: (§8) Biological Example 6: 3D Cell viability assay in AsPC-1, SW1900, HPAC, Capan-2, RKN, H358, HCT116, KP-2, H1573, A549, MKN1, and HT1080 cells
(§9) The inhibition of cellular viability as a result of test compound treatment in a spheroid assay was measured using the CellTiter-Glow 3D Cell Viability Assay (Promega).
(§10) On Day 1, 1000 cells per well were seeded in 150 μL of complete growth media supplemented with 10% fetal bovine serum (FBS) and incubated at 37° C., in the presence of 5% CO2 in 96-well ultra-low attachment microplates (Corning) for 48 hours undisturbed to allow spheroids to form.
(§11) Following spheroid formation, cells were treated with compounds diluted in DMSO at 0.25% final DMSO concentration. Compounds were dosed in a 9-point concentration curve with three-fold dilution between concentrations. Cells were incubated in the presence of compound for 72 hours at 37° C., in the presence of 5% CO2.
(§12) Following this incubation period, the kit-provided CTG reagent was allowed to equilibrate for 30 minutes at room temperature, 150 μL of equilibrated CTG reagent was added to each well, and the plate was sealed before shaking at 250 rpm for 10 minutes at room temperature to lyse the cells, 150 μL of lysate per well was transferred to a 96-well plate and luminescence was read on a CLARIOstar plate reader.
(§13) Data was imported into the Prism software package (Graphpad) and EC50 values were calculated using the log (inhibitor) vs, response—variable slope (Four parameters) model.

A549 cells (KRAS G12S) = assay: 3D Cell viability assay in A549 cells (Biological Example 6); format: cell-based; settings: Homo sapiens; A549 (KRAS G12S) spheroids, 72 hours
Description: as §8, §9, §10, §11, §12, §13

HT1080 cells (NRAS) = assay: 3D Cell viability assay in HT1080 cells (Biological Example 6); format: cell-based; settings: Homo sapiens, HT-1080; HT1080 (NRAS) spheroids, 72 hours
Description: as §8, §9, §10, §11, §12, §13

KP-2 cells (KRAS G12R) [3] = assay: Cell-based pERK HTRF assay in KP-2 cells (Biological Example 5); settings: KP-2 (KRAS G12R) cells
Description: as §1, §2, §3, §4, §5, §6, §7

AsPC-1 cells (KRAS G12D) = assay: Cell-based pERK HTRF assay in AsPC-1 cells (Biological Example 5); settings: Homo sapiens, ASPC1, AsPC-1 (KRAS G12D) cells
Description: as §1, §2, §3, §4, §5, §6, §7

KP-2 cells (KRAS G12R) [4] = assay: 3D Cell viability assay in KP-2 cells (Biological Example 6); format: cell-based; settings: KP-2 (KRAS G12R) spheroids, 72 hours
Description: as §8, §9, §10, §11, §12, §13

Structure (SMILES) | IC50 (HCT116 cells (KRAS G13D); Homo sapiens, HCT-116) | IC50 (H1573 cells (KRAS G12A) [1]) | IC50 (H1573 cells (KRAS G12A) [2]) | IC50 (A549 cells (KRAS G12S)) | IC50 (HT1080 cells (NRAS)) | IC50 (KP-2 cells (KRAS G12R) [3]) | IC50 (HCT116 cells (KRAS G13D)) | IC50 (AsPC-1 cells (KRAS G12D)) | IC50 (KP-2 cells (KRAS G12R) [4])
CCC(=O)N1CC[C@@H](N(C)c2nc(OC[C@@]34CCCN3C[C@H](F)C4)nc3c(F)c(-c4ccc(F)c5sc(N)c(C#N)c45)c(C(F)(F)F)cc23)[C@H]1C [Compound 260] | ≤ 100 nM | ≤ 100 nM | ≤ 100 nM | ≤ 100 nM | > 1000 nM |  |  |  | 
CCN(c1nc(OC[C@@]23CCCN2C[C@H](F)C3)nc2c(F)c(-c3ccc(F)c4sc(N)c(C#N)c34)c(C(F)(F)F)cc12)[C@H]1C[C@H](C)N(C(=O)[C@@H]2CC2(F)F)C1 (atropisomer, axis not shown) [Compound 751] | ≤ 100 nM |  |  |  |  |  |  |  | 
CCN(c1nc(OC[C@@]23CCCN2C[C@H](F)C3)nc2c(F)c(-c3ccc(F)c4sc(N)c(C#N)c34)c(Cl)cc12)[C@@H]1CCN(C(=O)C2CC2)[C@@H]1C [Compound 337] | ≤ 100 nM | ≤ 100 nM | ≤ 100 nM | ≤ 100 nM | > 1000 nM |  |  |  | 
CC(=O)N1CC[C@@H](N(C)c2nc(OC[C@@]34CCCN3C[C@H](F)C4)nc3c(F)c(-c4ccc(F)c5sc(N)c(C#N)c45)c(Cl)cc23)[C@H]1C [Compound 398] | ≤ 100 nM | ≤ 100 nM | ≤ 100 nM | ≤ 100 nM | > 1000 nM |  |  |  | 
CC(=O)N1CC[C@@H](N(C)c2nc(OC[C@@]34CCCN3C[C@H](F)C4)nc3c(F)c(-c4ccc(F)c5sc(N)c(C#N)c45)c(C(F)(F)F)cc23)[C@H]1C (single isomer, unassigned) [Compound 193] | ≤ 100 nM | ≤ 100 nM | ≤ 100 nM | ≤ 100 nM | > 1000 nM | ≤ 100 nM |  |  | 
CCN(c1nc(OCC23CCCN2CC(F)C3)nc2c(F)c(-c3ccc(F)c4sc(N)c(C#N)c34)c(C(F)(F)F)cc12)C1CC(C)N(C(=O)C2CC2(F)F)C1 (stereo not shown) [Compound 732] |  |  |  |  |  |  | ≤ 100 nM |  | 
CCN(c1nc(OC[C@@]23CCCN2C[C@H](F)C3)nc2c(F)c(-c3ccc(F)c4sc(N)c(C#N)c34)c(C(F)(F)F)cc12)[C@@H]1CCN(C(C)=O)C1 [Compound 268] | ≤ 100 nM | ≤ 100 nM | ≤ 100 nM | ≤ 100 nM | > 1000 nM | 100 to 1000 nM |  | 100 to 1000 nM | 100 to 1000 nM
CCN(c1nc(OC[C@@]23CCCN2C[C@H](F)C3)nc2c(F)c(-c3ccc(F)c4sc(N)c(C#N)c34)c(Cl)cc12)[C@@H]1CCN(C(C)=O)[C@@H]1C [Compound 323] | ≤ 100 nM | ≤ 100 nM | ≤ 100 nM | ≤ 100 nM | > 1000 nM |  |  |  | 
N#Cc1c(N)sc2c(F)ccc(-c3c(C(F)(F)F)cc4c(N5CCCOCC5)nc(OC[C@@]56CCCN5C[C@H](F)C6)nc4c3F)c12 [Compound 232] | ≤ 100 nM | ≤ 100 nM | ≤ 100 nM | ≤ 100 nM | > 1000 nM |  |  |  | 
N#Cc1c(N)sc2c(F)ccc(-c3c(C(F)(F)F)cc4c(N5CCC[C@@H](O)C5)nc(OC[C@@]56CCCN5C[C@H](F)C6)nc4c3F)c12 [Compound 234] | ≤ 100 nM | ≤ 100 nM | ≤ 100 nM | ≤ 100 nM | > 1000 nM |  |  |  | 
